Here are results for seven molecules from US20160263081A1, “ANTIPARASITIC AGENT” (NAI INC., priority 2013, published 2016).

Values joined by “and” are separate entries in the source; they are usually repeats but may differ in a detail not shown here. Equal entries are not always repeated. Where two headings read alike, the source gives them in different places.

One experiment addresses Ascaris suum complex II (Ascaris suum, UniProt O44074+P92506+P92507). The note with it: A. suum complex II; cited from earlier work.
For the next experiment, the system named is D. immitis microfilariae. It is filed as cell-based, Dirofilaria immitis.
The subject of experiment [1] is T. cruzi amastigote. The following applies: cited from earlier work.
Experiment [2] concerns L. donovani promastigote. The note with it: cited from earlier work.
Experiment [3] deals with L. major promastigote. The following applies: cited from earlier work.
Experiment [4] addresses T1, A. suum respiratory chain complex II (Ascaris suum, UniProt O44074+P92506+P92507).
T1 construct: measured using A. suum imago complex II; from tissue; host or cells: adult (imago) Ascaris suum
Briefly: biochemical.

In another experiment the test system is D. immitis complex II. It is filed as biochemical, Dirofilaria immitis.
Another experiment concerns H. contortus complex II. It is filed as biochemical, Haemonchus contortus.
Another experiment deals with A. simplex complex II (Anisakis simplex, UniProt A0A0M3JRB2+A0A0M3KB13+A0A3P6RGD8). Briefly: biochemical.
Sequence of A. simplex complex II (A0A0M3JRB2 24-279): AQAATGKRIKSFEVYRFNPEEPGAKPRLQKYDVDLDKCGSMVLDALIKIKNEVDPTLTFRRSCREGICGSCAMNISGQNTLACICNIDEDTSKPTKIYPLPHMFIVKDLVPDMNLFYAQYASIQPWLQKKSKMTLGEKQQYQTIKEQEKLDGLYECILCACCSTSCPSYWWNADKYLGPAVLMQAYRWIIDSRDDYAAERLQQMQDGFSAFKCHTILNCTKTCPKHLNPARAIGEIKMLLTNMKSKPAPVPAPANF
Sequence of A. simplex complex II (A0A3P6RGD8 1-99): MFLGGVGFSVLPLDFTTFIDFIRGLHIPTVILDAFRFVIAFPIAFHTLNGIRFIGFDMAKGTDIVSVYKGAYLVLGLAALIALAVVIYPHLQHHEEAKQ
Sequence of A. simplex complex II (A0A0M3KB13 31-157): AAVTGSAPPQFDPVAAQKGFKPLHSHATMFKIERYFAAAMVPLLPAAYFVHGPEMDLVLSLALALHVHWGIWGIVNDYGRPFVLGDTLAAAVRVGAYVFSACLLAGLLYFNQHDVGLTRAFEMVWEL
Sequence of A. simplex complex II (A0A0M3KCD2 1-354 partner): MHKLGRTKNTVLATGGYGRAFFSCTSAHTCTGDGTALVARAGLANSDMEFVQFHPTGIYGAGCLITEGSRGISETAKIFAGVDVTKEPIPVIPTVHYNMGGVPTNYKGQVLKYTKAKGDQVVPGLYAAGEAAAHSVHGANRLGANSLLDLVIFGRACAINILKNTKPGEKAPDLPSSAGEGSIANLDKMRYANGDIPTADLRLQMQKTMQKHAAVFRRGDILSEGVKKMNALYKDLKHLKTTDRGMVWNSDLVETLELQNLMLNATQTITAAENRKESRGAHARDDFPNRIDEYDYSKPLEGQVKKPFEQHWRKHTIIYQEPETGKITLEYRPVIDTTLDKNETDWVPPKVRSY
Another experiment deals with L. tarentolae complex II. It is filed as biochemical, Leishmania tarentolae.
In the next experiment the test system is T. cruzi complex II. It is filed as biochemical, Trypanosoma cruzi.
The next experiment deals with T. b. brucei complex II. It is filed as biochemical, Trypanosoma brucei brucei.
The next experiment concerns P. falciparum complex II. It is filed as biochemical, Plasmodium falciparum.
Experiment [5] deals with T2, pig complex II (Sus scrofa, UniProt A5GZW8+D0VWV4+Q007T0). It is filed as biochemical.
T2 sequence (Q0QF01 43-664 partner): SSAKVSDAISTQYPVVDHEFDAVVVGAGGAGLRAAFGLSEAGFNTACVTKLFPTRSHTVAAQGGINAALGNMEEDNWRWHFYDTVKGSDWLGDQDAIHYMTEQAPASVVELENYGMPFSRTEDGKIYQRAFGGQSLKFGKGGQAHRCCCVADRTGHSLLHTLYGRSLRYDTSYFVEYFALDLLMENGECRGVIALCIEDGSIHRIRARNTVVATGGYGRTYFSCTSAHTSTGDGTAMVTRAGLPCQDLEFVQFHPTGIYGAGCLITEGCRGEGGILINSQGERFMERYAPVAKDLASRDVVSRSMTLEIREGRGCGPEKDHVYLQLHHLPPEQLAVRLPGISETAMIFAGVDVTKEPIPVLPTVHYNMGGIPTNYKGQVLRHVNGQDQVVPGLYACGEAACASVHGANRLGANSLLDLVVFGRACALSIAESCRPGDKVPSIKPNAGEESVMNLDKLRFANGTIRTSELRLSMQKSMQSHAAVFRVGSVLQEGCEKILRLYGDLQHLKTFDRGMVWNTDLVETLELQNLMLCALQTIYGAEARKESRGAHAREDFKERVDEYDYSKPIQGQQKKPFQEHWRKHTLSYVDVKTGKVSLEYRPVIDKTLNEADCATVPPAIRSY
T2 sequence (Q007T0 29-280): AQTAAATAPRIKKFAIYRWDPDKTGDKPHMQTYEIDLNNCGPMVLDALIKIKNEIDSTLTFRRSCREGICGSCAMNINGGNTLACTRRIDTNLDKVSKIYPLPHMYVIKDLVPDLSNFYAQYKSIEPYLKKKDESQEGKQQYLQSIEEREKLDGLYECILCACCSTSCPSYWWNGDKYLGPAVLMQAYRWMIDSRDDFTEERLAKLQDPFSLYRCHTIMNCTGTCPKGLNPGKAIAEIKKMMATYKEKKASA
T2 sequence (D0VWV4 30-169): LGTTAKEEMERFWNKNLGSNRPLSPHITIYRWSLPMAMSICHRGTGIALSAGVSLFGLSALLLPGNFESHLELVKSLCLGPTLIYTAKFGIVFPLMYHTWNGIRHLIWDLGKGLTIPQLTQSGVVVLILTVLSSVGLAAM
T2 sequence (A5GZW8 57-159 limits assumed): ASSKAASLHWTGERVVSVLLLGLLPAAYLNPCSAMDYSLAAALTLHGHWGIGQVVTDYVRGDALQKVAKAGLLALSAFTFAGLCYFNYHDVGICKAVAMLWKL
Experiment [6] has as its target T1, A. suum respiratory chain complex II. Briefly: Lineweaver-Burk inhibition pattern, A. suum complex II. It is filed as biochemical. The note with it: for Ki: A. suum SQR activity, for quinone (decylubiquinone). The procedure: FIG. 1 is a graph which represents the inhibition pattern of siccanin against A. suum respiratory chain complex II.
(§1) In order to estimate the inhibitory mechanism of siccanin against complex II, the inhibitory pattern was determined by Lineweaver-Burk plot using succinate and quinone as the substrates. As samples for measurement, nematode complex II from A. suum and complex II from L. tarentolae, which is an easy-to-handle trypanosomatid, were used. […] The SDH activity is catalyzed by only subunits Fp and Ip of complex II and the quinone-binding domain is not essential for the reaction.

The target of experiment [7] is L. tarentolae respiratory chain complex II. Nature of the experiment: Lineweaver-Burk inhibition pattern, L. tarentolae complex II. It is filed as biochemical, Leishmania tarentolae. The note with it: for Ki: L. tarentolae SQR activity, for quinone (ubiquinone 1). The procedure:
FIG. 2 is a graph which represents the inhibition pattern of siccanin against L. tarentolae respiratory chain complex II.
as §1

The target of experiment [8] is T3, A. suum complex II SDH activity (Ascaris suum, UniProt O44074+P92506+P92507).
T3 construct: measured using A. suum imago complex II; from tissue; host or cells: adult (imago) Ascaris suum
Briefly: Succinate dehydrogenase (SDH) reaction with PMS and MTT, A. suum complex II. It is filed as biochemical. The following applies: 50 μM siccanin. The procedure:
as §1

The subject of experiment [9] is L. tarentolae complex II SDH activity. Briefly: Succinate dehydrogenase (SDH) reaction with PMS and MTT, L. tarentolae complex II. It is filed as biochemical, Leishmania tarentolae. The note with it: 50 μM siccanin. The procedure: as §1
The test system of experiment [10] is L. tarentolae promastigote. Briefly: Proliferation by Alamar Blue method, L. tarentolae promastigote. It is filed as cell-based. The note with it: Leishmania tarentolae, read-out: Celluler IC50. The source says: (§2) Siccanin inhibits trypanosomatid and plasmodia complex II with IC50 values on the nM order. Based on this fact, the present inventors further measured the impact of siccanin on the proliferation of parasites (Table 3). The species of the organisms used in the present study were: nonpathogenic leishmanial protozoan L. tarentolae promastigote (insect form), cutaneous leishmaniasis pathogen L. major promastigote (insect form), visceral leishmaniasis pathogen L. donovani promastigote (insect form), related species of African sleeping sickness pathogen T. b. brucei bloodstream form, Chagas disease pathogen T. cruzi amastigote (cell form), and plasmodia P. falciparum erythrocytic stage (Table 3). T. b. brucei bloodstream form and T. cruzi amastigote correspond to the stages found in mammalian hosts and can be used as target forms in drug treatments for African trypanosomiasis and Chagas disease.
(§3) In the presence of 0.05 to 50 μM siccanin, the proliferation of L. tarentolae promastigote, L. donovani promastigote, L. major promastigote, and T. brucei bloodstream form was measured by Alamar Blue method. […] The growth inhibitory effect of siccanin on T. cruzi was evaluated by counting the T. cruzi amastigote population that infected mouse cells. As compared with DMSO control, the number of the protozoa decreased by 50% in the presence of 10 μM siccanin. […]
(In general: Resazurin is reduced to fluorescent resorufin, in cell work by metabolically active cells.)

Experiment [11] has as its system L. donovani promastigote. Briefly: Proliferation by Alamar Blue method, L. donovani promastigote. It is filed as cell-based. The note with it: Leishmania donovani.
From the text: as §2, §3

In experiment [12] the test system is L. major promastigote. Nature of the experiment: Proliferation by Alamar Blue method, L. major promastigote. It is filed as cell-based. The note with it: Leishmania major, read-out: Celluler IC50.
From the text: as §2, §3

In experiment [13] the test system is T. b. brucei bloodstream form. Briefly: Proliferation by Alamar Blue method, T. b. brucei bloodstream form. It is filed as cell-based. The following applies: Trypanosoma brucei, read-out: Celluler IC50.
From the text: as §2, §3

The test system of experiment [14] is T. cruzi amastigote. Briefly: Count of T. cruzi amastigotes infecting mouse cells. It is filed as cell-based, Trypanosoma cruzi.
From the text: as §2, §3

The test system of experiment [15] is P. falciparum erythrocytic stage. Nature of the experiment: P. falciparum proliferation by LDH assay. It is filed as cell-based, Plasmodium falciparum. The following applies: read-out: Celluler IC50.
From the text: as §2, §3

For experiment [16], the target named is T2, pig complex II. The note with it: Non-Patent Document 21; cited from earlier work.
For experiment [17], the system named is Trychophyton spp., Epidermophyton floccosum, and Microsporium gypseum. The note with it: cited from earlier work.
Another experiment deals with T. mentagrophytes. The note with it: glycol salicylate ointment containing 1% siccanin applied 3-8 days after infection, albino guinea pigs, N=20; cited from earlier work.
Experiment [18] relates to T. mentagrophytes respiratory chain complex II. The following applies: cited from earlier work.
Experiment [19] has as its system T. mentagrophytes mitochondria. The note with it: cited from earlier work.
For experiment [20], the system named is Pseudomonas aeruginosa complex II. The note with it: cited from earlier work.
In the next experiment the target is rat complex II (Rattus norvegicus, UniProt P21913+Q641Z9+Q6PCT8). The note with it: cited from earlier work.
Experiment [21] concerns the target Escherichia coli complex II (Escherichia coli, UniProt P07014+P0AC44+P69054). The note with it: cited from earlier work.
Where [22] appears, read: complex II alone, read-out: Ki1.
Setting [23] is: complex of complex II and ubiquinone, read-out: Ki2.
Where [24] appears, read: A. suum complex II, Lineweaver-Burk plot.

T1 sequence (Q33862 19-645 partner): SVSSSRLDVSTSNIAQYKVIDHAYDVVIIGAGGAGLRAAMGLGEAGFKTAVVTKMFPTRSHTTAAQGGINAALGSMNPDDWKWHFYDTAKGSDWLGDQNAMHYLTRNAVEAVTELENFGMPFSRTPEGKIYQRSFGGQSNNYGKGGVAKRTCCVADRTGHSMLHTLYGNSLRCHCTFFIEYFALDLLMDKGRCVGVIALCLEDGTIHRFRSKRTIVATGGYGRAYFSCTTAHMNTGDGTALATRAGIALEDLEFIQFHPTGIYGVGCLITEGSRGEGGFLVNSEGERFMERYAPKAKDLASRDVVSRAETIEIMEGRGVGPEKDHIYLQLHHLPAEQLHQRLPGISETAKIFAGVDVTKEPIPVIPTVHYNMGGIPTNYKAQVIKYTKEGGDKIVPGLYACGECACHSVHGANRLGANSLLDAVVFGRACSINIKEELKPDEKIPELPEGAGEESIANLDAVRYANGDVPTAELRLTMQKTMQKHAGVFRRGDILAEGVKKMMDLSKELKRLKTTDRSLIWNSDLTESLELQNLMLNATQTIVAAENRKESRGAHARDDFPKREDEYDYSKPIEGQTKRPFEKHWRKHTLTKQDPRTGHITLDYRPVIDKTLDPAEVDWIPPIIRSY
T1 sequence (O44074 22-282): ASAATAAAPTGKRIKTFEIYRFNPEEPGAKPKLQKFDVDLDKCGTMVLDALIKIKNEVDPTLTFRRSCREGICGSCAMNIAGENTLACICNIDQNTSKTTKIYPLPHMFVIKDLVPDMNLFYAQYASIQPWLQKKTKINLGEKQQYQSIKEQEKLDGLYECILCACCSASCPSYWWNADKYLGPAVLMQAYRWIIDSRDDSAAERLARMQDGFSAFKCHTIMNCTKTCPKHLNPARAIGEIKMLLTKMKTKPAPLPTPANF
T1 sequence (P92506 32-188): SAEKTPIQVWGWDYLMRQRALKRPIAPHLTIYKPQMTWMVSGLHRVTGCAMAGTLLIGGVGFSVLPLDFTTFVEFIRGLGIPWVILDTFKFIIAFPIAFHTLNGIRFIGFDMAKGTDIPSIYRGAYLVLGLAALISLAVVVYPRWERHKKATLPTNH
T1 sequence (P92507 26-156): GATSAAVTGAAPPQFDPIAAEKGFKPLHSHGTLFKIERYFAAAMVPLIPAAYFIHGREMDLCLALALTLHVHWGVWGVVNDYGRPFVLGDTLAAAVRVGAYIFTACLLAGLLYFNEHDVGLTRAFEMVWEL
Sequence of Escherichia coli complex II (P0AC41 whole entry partner): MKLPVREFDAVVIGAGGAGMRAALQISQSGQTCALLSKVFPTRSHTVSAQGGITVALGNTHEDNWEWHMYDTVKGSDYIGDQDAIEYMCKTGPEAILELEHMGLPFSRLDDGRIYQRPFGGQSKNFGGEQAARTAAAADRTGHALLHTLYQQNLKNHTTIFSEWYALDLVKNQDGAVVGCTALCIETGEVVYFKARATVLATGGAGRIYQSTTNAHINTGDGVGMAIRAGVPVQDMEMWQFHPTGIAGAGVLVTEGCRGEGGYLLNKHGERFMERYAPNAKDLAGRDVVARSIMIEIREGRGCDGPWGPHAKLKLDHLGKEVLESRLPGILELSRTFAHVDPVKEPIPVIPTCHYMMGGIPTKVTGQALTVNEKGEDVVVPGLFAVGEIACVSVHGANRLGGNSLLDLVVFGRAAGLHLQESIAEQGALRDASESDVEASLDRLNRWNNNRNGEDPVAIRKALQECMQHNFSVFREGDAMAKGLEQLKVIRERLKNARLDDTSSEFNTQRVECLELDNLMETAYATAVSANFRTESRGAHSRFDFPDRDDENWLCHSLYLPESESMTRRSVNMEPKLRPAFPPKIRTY
Sequence of Escherichia coli complex II (P07014 whole entry): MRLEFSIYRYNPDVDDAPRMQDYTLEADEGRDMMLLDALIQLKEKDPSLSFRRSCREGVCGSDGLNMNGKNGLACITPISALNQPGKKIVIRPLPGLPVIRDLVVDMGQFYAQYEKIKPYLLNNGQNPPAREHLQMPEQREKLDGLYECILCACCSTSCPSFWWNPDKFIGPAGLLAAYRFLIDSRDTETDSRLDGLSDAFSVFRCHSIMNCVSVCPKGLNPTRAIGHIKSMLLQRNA
Sequence of Escherichia coli complex II (P69054 whole entry): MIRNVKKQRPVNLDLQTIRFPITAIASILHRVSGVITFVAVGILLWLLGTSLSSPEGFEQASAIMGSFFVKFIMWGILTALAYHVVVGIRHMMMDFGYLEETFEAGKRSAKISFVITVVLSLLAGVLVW
Sequence of Escherichia coli complex II (P0AC44 whole entry): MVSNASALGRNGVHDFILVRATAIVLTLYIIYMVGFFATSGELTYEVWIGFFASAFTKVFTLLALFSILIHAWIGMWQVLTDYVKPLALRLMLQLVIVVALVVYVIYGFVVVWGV

As for `CC(C)Oc1cccc(NC(=O)c2ccccc2C(F)(F)F)c1` [flutolanil], the “selectivity over pig complex II” value at Ascaris suum complex II is 800 fold.
ivermectin [reference compound]: the “Motility (%)” value turned out to be 100% with D. immitis microfilariae (5 μM, 0 hr); 75% in the experiment with D. immitis microfilariae (5 μM, 24 hr); 50% with D. immitis microfilariae (5 μM, 48 hr); 100% with D. immitis microfilariae (50 μM, 0 hr); 50% with D. immitis microfilariae (50 μM, 24 hr); 50% with D. immitis microfilariae (50 μM, 48 hr).
A word on the IC50: it is the concentration at which inhibition is half-maximal. Regarding `CC1CS(=O)(=O)CCN1/N=C/c1ccc([N+](=O)[O-])o1` (stereo not shown) [nifurtimox], the IC50 in the experiment on T. cruzi amastigote [1] is around 3500 nM.
As to `O=C(Cn1ccnc1[N+](=O)[O-])NCc1ccccc1` [benznidazole], the IC50 in the experiment on T. cruzi amastigote [1] is around 22000 nM.
With `C[C@@H]1[C@H](O)[C@@H](C)/C=C/C=C/C=C/C=C/C=C/C=C/C=C/[C@H](O[C@@H]2O[C@H](C)[C@@H](O)[C@H](N)[C@@H]2O)C[C@@H]2O[C@](O)(C[C@@H](O)C[C@@H](O)[C@H](O)CC[C@@H](O)C[C@@H](O)CC(=O)O[C@H]1C)C[C@H](O)[C@H]2C(=O)O` [Amphotericin B], the results for the IC50 in the experiment on L. donovani promastigote [2] and with L. major promastigote [3] were around 12 nM and around 43 nM, respectively.
For the molecule `CCCCCCCCCCCCCCCCOP(=O)([O-])OCC[N+](C)(C)C` [miltefosine], the IC50 with L. donovani promastigote [2] is around 450 nM; in the experiment on L. major promastigote [3] it was around 13100 nM.
As usually defined, the MIC is the least concentration at which growth counts as inhibited. On to `Cc1cc(O)c2c(c1)O[C@@]1(C)CC[C@H]3C(C)(C)CCC[C@]34CO[C@@H]2[C@H]41` [siccanin], for which the IC50 in [4] came out at 5.7 nM; in the experiment on D. immitis complex II (read-out: SQR IC50), 13.8 nM; in the experiment on H. contortus complex II (read-out: SQR IC50) it was 18.2 nM; against A. simplex complex II it was 11.2 nM; in the experiment on L. tarentolae complex II (read-out: SQR IC50), 190 nM; with T. cruzi complex II (read-out: SQR IC50) it was 1200 nM. The IC50 in the experiment on T. b. brucei complex II (read-out: SQR IC50) worked out at 370 nM; in the experiment on P. falciparum complex II it was 98 nM; in experiment [10], 4400 nM; with L. donovani promastigote [11] (read-out: Celluler IC50), 700 nM; in the experiment on L. donovani promastigote [11] (read-out: IC50), 700 nM; in the experiment with L. major promastigote [12], 13000 nM. For the same molecule, the IC50 in experiment [13] is 8300 nM; with T. cruzi amastigote [14] (Trypanosoma cruzi, T. cruzi amastigote in mouse cells, read-out: Celluler IC50) it was 10000 nM; in experiment [15] (Plasmodium falciparum) it was 15500 nM; in [15], 16000 nM; on pig complex II [16], 861000 nM; in experiment [18], 87 nM. Moreover, the IC50 in experiment [20] (Pseudomonas aeruginosa complex II) was 870 nM; at rat complex II, 9300 nM; in [21], 268000 nM. The Selectivity in experiment [4] was 180,000 fold; with D. immitis complex II, 62391 fold; in the experiment with H. contortus complex II, 47308 fold; on A. simplex complex II it was 76875 fold; in the experiment with L. tarentolae complex II, 4532 fold; with T. cruzi complex II, 718 fold. In addition, the results for the Selectivity in the experiment on T. b. brucei complex II, in the experiment on P. falciparum complex II and on pig complex II [5] were 3189 fold, 8675 and 1, respectively. Further, the “selectivity relative to the selectivity of flutolanil” value in experiment [4] is listed as “about 20 fold”. The Ki in [6] (setting [22]) was 3 nM and 5.2 nM; in experiment [6] (setting [23]) it was 8.7 nM and 9.9 nM; in experiment [7] (setting [22]) it was 39 nM; in [7] (setting [23]), 102 nM. Moreover, the “inhibitory pattern for quinone” value in experiment [6] (setting [24]) was “mixed inhibition”; in [7] (L. tarentolae complex II, Lineweaver-Burk plot) it was “mixed inhibition”. The “inhibitory pattern for succinate” value in [6] (setting [24]) is “non-competitive inhibition”. Also, the “inhibition of SDH activity” value in [8] and in experiment [9] was “no inhibitory effects” each time. The “Motility (%)” value turned out to be 100% in the experiment with D. immitis microfilariae (5 μM, 0 hr); 75% in the experiment with D. immitis microfilariae (5 μM, 24 hr); 50% in the experiment on D. immitis microfilariae (5 μM, 48 hr); 25% in the experiment with D. immitis microfilariae (50 μM, 0 hr); 0% in the experiment with D. immitis microfilariae (50 μM, 24 hr); 0% with D. immitis microfilariae (50 μM, 48 hr). Besides, in the experiment with T. cruzi amastigote [14] (10 μM siccanin), the “decrease in the number of the protozoa compared with DMSO control” value is on record as 50%. For the same molecule, the MIC in experiment [17] was 0.6 to 6.3 µg/mL. Moreover, in the experiment with T. mentagrophytes, the “subjects whose skin was completely cured” value is reported as 85-100%. Moreover, the “inhibition of NADH- or ascorbate-dependant oxygen consumption” value in experiment [19] is “does not inhibit”. Besides, the “inhibition mode against quinone” value in experiment [20] (membrane fraction of Pseudomonas aeruginosa) is given as “mixed inhibition”.
